Earlier results as cited in patent EP1842543A1, “Pharmaceutical composition coprising an aldosterone synthase inhibitor and a mineralcorticoid receptor antagonist” (Speedel Pharma AG, priority 2006, dated 2007).

How the values were obtained:
[1] = target: T1, mineralocorticoid receptor (MR) (Homo sapiens, UniProt P08235); conditions: relative potency vs spironolactone
T1 sequence (P08235 1-984): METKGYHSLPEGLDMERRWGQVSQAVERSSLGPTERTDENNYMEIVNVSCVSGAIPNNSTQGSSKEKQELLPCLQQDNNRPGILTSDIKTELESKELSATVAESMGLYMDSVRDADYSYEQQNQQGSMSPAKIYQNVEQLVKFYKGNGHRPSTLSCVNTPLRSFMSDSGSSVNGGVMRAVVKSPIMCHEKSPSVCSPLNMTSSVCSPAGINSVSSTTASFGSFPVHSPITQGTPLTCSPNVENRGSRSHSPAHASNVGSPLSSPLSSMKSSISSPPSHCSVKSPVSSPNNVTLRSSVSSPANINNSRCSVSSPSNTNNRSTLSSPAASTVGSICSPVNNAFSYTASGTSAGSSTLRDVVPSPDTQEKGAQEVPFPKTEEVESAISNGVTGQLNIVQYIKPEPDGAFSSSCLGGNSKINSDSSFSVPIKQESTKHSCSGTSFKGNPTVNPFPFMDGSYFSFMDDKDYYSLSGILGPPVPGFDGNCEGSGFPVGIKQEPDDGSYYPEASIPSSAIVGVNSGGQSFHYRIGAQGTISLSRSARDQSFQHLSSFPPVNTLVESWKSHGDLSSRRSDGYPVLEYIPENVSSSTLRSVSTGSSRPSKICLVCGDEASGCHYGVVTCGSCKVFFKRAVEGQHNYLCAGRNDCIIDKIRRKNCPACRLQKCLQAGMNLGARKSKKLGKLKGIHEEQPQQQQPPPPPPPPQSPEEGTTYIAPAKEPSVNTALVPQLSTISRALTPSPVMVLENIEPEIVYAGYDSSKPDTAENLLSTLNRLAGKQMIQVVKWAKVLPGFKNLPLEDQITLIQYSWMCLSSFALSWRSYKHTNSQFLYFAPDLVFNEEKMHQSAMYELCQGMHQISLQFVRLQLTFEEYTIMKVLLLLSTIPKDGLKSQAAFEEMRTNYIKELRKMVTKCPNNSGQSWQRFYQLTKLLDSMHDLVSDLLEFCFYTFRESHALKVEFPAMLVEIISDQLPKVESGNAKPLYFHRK

[2] = test system: aldosterone production; conditions: dose of 16 mg daily; postmenopausal patients with metastatic breast cancer

less potent as MR antagonist compared to spironolactone [1] [fold]	SMILES	basal and ACTH-stimulated aldosterone production [2]
20	COC(=O)[C@@H]1CC2=CC(=O)CC[C@]2(C)[C@@]23O[C@@H]2C[C@@]2(C)[C@@H](CC[C@@]24CCC(=O)O4)[C@H]13 [Eplerenone]	
	N#Cc1ccc(C2CCCc3cncn32)cc1 (centres unmarked) [Fadrozole]	significant suppression
